# In ChEMBL document CHEMBL1201862, “PubChem BioAssay data set” (2004):
#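 How tested: cells in 96-well plates exposed to compound for 48 hours at five concentrations. GI50 marks 50% less growth.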 Active and inactive are the calls of the source. No stated cut-off is given here; in the data, active = GI50 up to about 1.1 µM and inactive = higher.
# How the values were obtained:
# Assay in all cases: DTP human tumour cell line panel, 48 h
# NCI/ADR-RES = system: NCI/ADR-RES
# HOP-92 = system: HOP-92
# Hs-578T = system: Hs-578T
# SNB-19 = system: SNB-19
# HOP-62 = system: HOP-62
# TK-10 = system: TK-10
# DU-145 = system: DU-145
# MDA-MB-435 = system: MDA-MB-435
# OVCAR-4 = system: OVCAR-4
# UACC-257 = system: UACC-257
# SK-MEL-2 = system: SK-MEL-2
# CCRF-CEM = system: CCRF-CEM
# SF-268 = system: SF-268
# K562 = system: K562
# LOX IMVI = system: LOX IMVI
# SK-MEL-28 = system: SK-MEL-28
# SR = system: SR
# COLO 205 = system: COLO 205
# PC-3 = system: PC-3
# RPMI-8226 = system: RPMI-8226
Compound,GI50 (NCI/ADR-RES),GI50 (HOP-92),GI50 (Hs-578T),GI50 (SNB-19),GI50 (HOP-62),GI50 (TK-10),GI50 (DU-145),GI50 (MDA-MB-435),GI50 (OVCAR-4),GI50 (UACC-257),GI50 (SK-MEL-2),GI50 (CCRF-CEM),GI50 (SF-268),GI50 (K562),GI50 (LOX IMVI),GI50 (SK-MEL-28),GI50 (SR),GI50 (COLO 205),GI50 (PC-3),GI50 (RPMI-8226)
Cc1cccc2c(N)c3cccc(C(=O)NCC[N+](C)(C)Cc4sccc4[N+](=O)[O-])c3nc12,51.4 µM (inactive),34.5 µM (inactive),1.11 µM (active),6.59 µM (inactive),2.6 µM (inactive),25.9 µM (inactive),23.8 µM (inactive),40.6 µM (inactive),12.3 µM (inactive),26.9 µM (inactive),72.9 µM (inactive),> 100 µM (inactive),19 µM (inactive),3.64 µM (inactive),13.5 µM (inactive),37.3 µM (inactive),0.398 µM (active),13.3 µM (inactive),11.9 µM (inactive),–
O=C1CCC2(c3ccc(F)cc3)Nc3ncncc3N12 (stereo not given),> 10 µM (inactive),> 10 µM (inactive),> 10 µM (inactive),> 10 µM (inactive),–,> 10 µM (inactive),> 10 µM (inactive),> 10 µM (inactive),> 10 µM (inactive),> 10 µM (inactive),> 10 µM (inactive),> 10 µM (inactive),> 10 µM (inactive),> 10 µM (inactive),> 10 µM (inactive),–,> 10 µM (inactive),–,> 10 µM (inactive),–
COc1ccc2c(c1)CCc1cc(OC)ccc1/[N+]([O-])=[N+]\2[O-],24.9 µM (inactive),13.2 µM (inactive),25.1 µM (inactive),21.6 µM (inactive),21.6 µM (inactive),22.4 µM (inactive),18.1 µM (inactive),16.3 µM (inactive),–,18.3 µM (inactive),20.9 µM (inactive),1.92 µM (inactive),16.7 µM (inactive),8.91 µM (inactive),15 µM (inactive),18.7 µM (inactive),3.28 µM (inactive),14.5 µM (inactive),14.8 µM (inactive),4.86 µM (inactive)
NC(CCc1ccccc1)(C(=O)O)c1ccccc1 (stereo not given),> 100 µM (inactive),> 100 µM (inactive),> 100 µM (inactive),> 100 µM (inactive),> 100 µM (inactive),> 100 µM (inactive),> 100 µM (inactive),> 100 µM (inactive),> 100 µM (inactive),> 100 µM (inactive),> 100 µM (inactive),> 100 µM (inactive),> 100 µM (inactive),> 100 µM (inactive),> 100 µM (inactive),> 100 µM (inactive),> 100 µM (inactive),–,> 100 µM (inactive),–
CC1(C)N=c2c(ncn2N)=C(C(N)=O)N1,> 100 µM (inactive),22.3 µM (inactive),> 100 µM (inactive),> 100 µM (inactive),> 100 µM (inactive),> 100 µM (inactive),> 100 µM (inactive),> 100 µM (inactive),> 100 µM (inactive),> 100 µM (inactive),–,> 100 µM (inactive),> 100 µM (inactive),> 100 µM (inactive),> 100 µM (inactive),> 100 µM (inactive),> 100 µM (inactive),> 100 µM (inactive),> 100 µM (inactive),> 100 µM (inactive)
Cc1c(O)nc(-n2[nH]c3c(c2=O)CCCC3)[nH]c1=O,> 100 µM (inactive),> 100 µM (inactive),> 100 µM (inactive),> 100 µM (inactive),–,> 100 µM (inactive),> 100 µM (inactive),> 100 µM (inactive),> 100 µM (inactive),> 100 µM (inactive),> 100 µM (inactive),> 100 µM (inactive),> 100 µM (inactive),> 100 µM (inactive),–,> 100 µM (inactive),> 100 µM (inactive),> 100 µM (inactive),> 100 µM (inactive),> 100 µM (inactive)
CN(C)c1ccc(/N=C2/NC(=N\c3ccccc3)/C(=N/c3ccccc3)S2)cc1,> 100 µM (inactive),> 100 µM (inactive),30.7 µM (inactive),87.3 µM (inactive),41.6 µM (inactive),62.4 µM (inactive),> 100 µM (inactive),> 100 µM (inactive),> 100 µM (inactive),> 100 µM (inactive),98.2 µM (inactive),97.5 µM (inactive),> 100 µM (inactive),–,37.6 µM (inactive),> 100 µM (inactive),> 100 µM (inactive),> 100 µM (inactive),> 100 µM (inactive),–
O=C1/C(=C/c2ccccc2O)N=C(c2ccccc2)N1c1nc2ccccc2s1,14.5 µM (inactive),29.9 µM (inactive),16 µM (inactive),–,18.6 µM (inactive),23.8 µM (inactive),27.3 µM (inactive),3.1 µM (inactive),32.1 µM (inactive),19.8 µM (inactive),9.18 µM (inactive),25.5 µM (inactive),20.2 µM (inactive),7.85 µM (inactive),15.5 µM (inactive),21.3 µM (inactive),2.24 µM (inactive),–,15.7 µM (inactive),19.1 µM (inactive)
